The values below come from BindingDB's records for doi:10.1021/jm970569j (Seoul National University, 1998).

The structures appear in SMILES notation. Some results are limits rather than exact numbers.

The target of the assay is Platelet-activating factor receptor (Oryctolagus cuniculus). The experiment in a line: In vitro inhibitory activity against PAF receptor using [3H]PAF as radioligand in rabbit platelets.
`COC(=O)[C@@]1(C)CCC[C@@]2(C)C1CC[C@](O)(CO)[C@@H]2CCC1=CCOC1=O` (stereo partly drawn) [(1S,4aS,5R,6R)-6-Hydroxy-6-hydroxymethyl-1,4a-dimethyl-5-[2-(2-oxo-2,5-dihydro-furan-3-yl)-ethyl]-decahydro-naphthalene-1-carboxylic acid methyl ester] came in with an IC50 of more than 1000 µM. The molecule `COC(=O)[C@@]1(C)CCC[C@@]2(C)C1CCC(C)[C@@H]2CCC1CCOC1=O` (stereo partly drawn) [(1S,4aR,5S)-1,4a,6-Trimethyl-5-[2-(2-oxo-tetrahydro-furan-3-yl)-ethyl]-decahydro-naphthalene-1-carboxylic acid methyl ester] registered an IC50 of 4.8 µM.

With `C=C1CCC2[C@](C)(CCC[C@]2(C)C(=O)OC)[C@H]1CCC1CCOC1=O` (stereo partly drawn) [(1S,4aR,5S)-1,4a-Dimethyl-6-methylene-5-[2-(2-oxo-tetrahydro-furan-3-yl)-ethyl]-decahydro-naphthalene-1-carboxylic acid methyl ester], the concentration for half-maximal inhibition (IC50) is 2 µM. Compared with the last molecule, the IC50 is about 2.4-fold lower. In the case of `C=C1CCC2[C@](C)(CCC[C@]2(C)C(=O)OC)[C@H]1CCc1ccoc1` (stereo partly drawn) [(1S,4aR,5S)-5-(2-Furan-3-yl-ethyl)-1,4a-dimethyl-6-methylene-decahydro-naphthalene-1-carboxylic acid methyl ester] it was more than 1000 µM; in that of `COC(=O)[C@@]1(C)CCC[C@@]2(C)C1CC[C@]1(CO1)[C@@H]2CCC1=CCOC1=O` (stereo partly specified) [methyl 5,8a-dimethyl-1-[2-(2-oxo-2,5-dihydro-3-furanyl)ethyl]spiro[perhydronaphthalene-2,2'-(dihydrooxirane)]-5-carboxylate], 1 µM.

Molecule `C=C1CCC2[C@@](C)(CO)CCC[C@]2(C)[C@H]1CC/C(=C/CO)CO` (stereo partly drawn) [(Z)-2-[2-((1S,5S,8aR)-5-Hydroxymethyl-5,8a-dimethyl-2-methylene-decahydro-naphthalen-1-yl)-ethyl]-but-2-ene-1,4-diol] came in with an IC50 of 21 µM. Regarding `C=C1CCC2[C@](C)(CCC[C@]2(C)C(=O)OC)[C@H]1CC/C(=C/CO)CO` (stereo partly drawn) [(1S,4aR,5S)-5-((Z)-5-Hydroxy-3-hydroxymethyl-pent-3-enyl)-1,4a-dimethyl-6-methylene-decahydro-naphthalene-1-carboxylic acid methyl ester], the IC50 was 12 µM. Molecule `COC(=O)[C@@]1(C)CCC[C@@]2(C)C1CCC(=O)[C@@H]2CCC1=CCOC1=O` (stereo partly drawn) [(1S,4aS,5R)-1,4a-Dimethyl-6-oxo-5-[2-(2-oxo-2,5-dihydro-furan-3-yl)-ethyl]-decahydro-naphthalene-1-carboxylic acid methyl ester] gave an IC50 of 0.26 µM. Turning to `COC(=O)[C@@]1(C)CCC[C@@]2(C)C1CC[C@H](O)[C@@H]2CCC1=CCOC1=O` (stereo partly drawn) [(1S,4aS,5R,6S)-6-Hydroxy-1,4a-dimethyl-5-[2-(2-oxo-2,5-dihydro-furan-3-yl)-ethyl]-decahydro-naphthalene-1-carboxylic acid methyl ester], the half-maximal inhibitory concentration (IC50) was 2 µM. In the case of `COC(=O)[C@@]1(C)CCC[C@@]2(C)C1CCC(=O)[C@@H]2CCC1CCOC1=O` (stereo partly drawn) [(1S,4aS,5R)-1,4a-Dimethyl-6-oxo-5-[2-(2-oxo-tetrahydro-furan-3-yl)-ethyl]-decahydro-naphthalene-1-carboxylic acid methyl ester] it was 2.6 µM; in that of `COC(=O)[C@@]1(C)CCC[C@@]2(C)C1CC[C@H](CO)[C@@H]2CCC1=CCOC1=O` (stereo partly drawn) [(1S,4aR,5S,6S)-6-Hydroxymethyl-1,4a-dimethyl-5-[2-(2-oxo-2,5-dihydro-furan-3-yl)-ethyl]-decahydro-naphthalene-1-carboxylic acid methyl ester], 1.6 µM; in that of `C=C1CCC2[C@@](C)(COC)CCC[C@]2(C)[C@H]1CCC1=CCOC1=O` (stereo partly drawn) [3-[2-((1S,5S,8aR)-5-Methoxymethyl-5,8a-dimethyl-2-methylene-decahydro-naphthalen-1-yl)-ethyl]-5H-furan-2-one], 1.7 µM.

Turning to `C=C1CCC2[C@@](C)(CO)CCC[C@]2(C)[C@H]1CCC1=CCOC1=O` (stereo partly drawn) [3-[2-((1S,5S,8aR)-5-Hydroxymethyl-5,8a-dimethyl-2-methylene-decahydro-naphthalen-1-yl)-ethyl]-5H-furan-2-one], the IC50 is 30 µM. To `C=C1CCC2[C@@](C)(CO)CCC[C@]2(C)[C@H]1CCC1=CC(=O)OC1` (stereo partly drawn) [4-[2-((1S,5S,8aR)-5-Hydroxymethyl-5,8a-dimethyl-2-methylene-decahydro-naphthalen-1-yl)-ethyl]-5H-furan-2-one] belongs 110 µM. For `C=C1CCC2[C@](C)(CCC[C@]2(C)C(=O)OC)[C@H]1CCC1=CCOC1=O` (stereo partly drawn) [(1S,4aR,5S)-1,4a-Dimethyl-6-methylene-5-[2-(2-oxo-2,5-dihydro-furan-3-yl)-ethyl]-decahydro-naphthalene-1-carboxylic acid methyl ester], the IC50 was found to be 0.25 µM. In the case of `C=C1CCC2[C@](C)(CCC[C@]2(C)C(=O)OC)[C@H]1CCC1=CC(=O)OC1` (stereo partly drawn) [(1S,4aR,5S)-1,4a-Dimethyl-6-methylene-5-[2-(5-oxo-2,5-dihydro-furan-3-yl)-ethyl]-decahydro-naphthalene-1-carboxylic acid methyl ester] it was 6 µM.

As usually defined, the IC50 is the point on the concentration scale where inhibition reaches its midpoint.
